Key:
Assay type in all cases: in vivo, human
[1] = tested on: patients with interstitial lung disease and pulmonary hypertension; assay: Exacerbations of underlying lung disease, 16-week placebo-controlled trial of inhaled treprostinil (INCREASE)
Method: (§1) Subjects having underlying lung disease were treated with inhaled treprostinil over 16 weeks. Subjects initiated inhaled treprostinil or placebo at a dose of 3 breaths (18 mcg) 4 times daily (during waking hours). Study drug doses were maximized throughout the study. Dose escalations (additional 1 breath 4 times daily) could occur up to every 3 days with a target dosing regimen of 9 breaths (54 mcg) 4 times daily and a maximum dose of 12 breaths (72 mcg) 4 times daily, as clinically tolerated. Subjects were assessed during Screening and Baseline to determine eligibility for the study. Once eligible, 5 Treatment Phase visits to the clinic were required at Week 4, Week 8, Week 12, Week 15, and Week 16 (final study visit). An Early Termination (ET) Visit was conducted for subjects who discontinued prior to Week 16; all assessments planned for the final Week 16 Visit were conducted during the ET Visit, if applicable. Subjects were contacted at least weekly by telephone or email to assess tolerance to study drug, adverse events (AEs), and changes to concomitant medications.

[2] = tested on: patients with interstitial lung disease and pulmonary hypertension; assay: Pulmonary function tests (FVC, FEV1, TLC, DLCO), mixed model repeated measurement, INCREASE
Method: as §1
Pulmonary function testing was initially conducted as a safety assessment (Safety Population) during the study. […] As a result, post hoc MMRM analyses of FVC data were performed for the ITT Population and are presented in Table 1 (ITT Population), Table 2 (by PH ILD Etiology of IIP) and Table 3 (for subjects with IPF), shown below.
(§2) The 6-minute walk test was performed and laboratory data were obtained at baseline and at weeks 4, 8, 12, and 16, or at the time of early discontinuation of treprostinil or placebo. Each 6-minute walk test was performed 10 to 60 minutes after the most recent dose of active drug or placebo, which is the time of peak plasma treprostinil exposure. A trough test was performed at week 15 at least 4 hours after the participant received a dose of treprostinil or placebo and at least 24 hours before the week 16 test. Pulse oximetry was performed immediately before, during, and after each 6-minute walk test. Measurement of N-terminal pro-B-type natriuretic peptide (NT-proBNP) levels and pulmonary function tests were performed at baseline and at weeks 8 and 16 (or at early discontinuation) after the patients recovered from the 6-minute walk test. The St. George's Respiratory Questionnaire (SGRQ), a quality-of-life measure, was completed at baseline and week 16 or at the time of early discontinuation.
LS Mean (SE); P-values; estimated difference (SE); and associated 95% CIs are from the mixed model repeated measurement with the change from Baseline in pulmonary function test parameter as the dependent variable; treatment, week, treatment by week interaction as the fixed effects; Baseline measurement as the covariate; and subject as the random effect. An unstructured variance/covariance structure shared across treatment groups was used to model the within-subject errors.

[3] = tested on: patients with interstitial lung disease and pulmonary hypertension; assay: Occurrence of / time to clinical worsening, INCREASE
Method: The primary end point of the trial was the difference between the two groups in the change in peak 6-minute walk distance from baseline to week 16. Secondary efficacy end points were analyzed in the following hierarchical testing order: the change in NT-proBNP level from baseline to week 16, the time to clinical worsening, the change in 6-minute walk distance at peak plasma treprostinil level at week 12, and the change in 6-minute walk distance at trough treprostinil level at week 15. The time to clinical worsening was evaluated from the time of randomization until the patient's withdrawal from the trial and was defined as the time until the occurrence of any one of the following events: hospitalization for a cardiopulmonary indication, a decrease in 6-minute walk distance greater than 15% from baseline that was directly related to the disease under study at two consecutive visits and at least 24 hours apart, death from any cause, or lung transplantation.

[4] = tested on: patients with interstitial lung disease and pulmonary hypertension; assay: St. George's Respiratory Questionnaire, INCREASE
Method: as §2
The St. George's Respiratory Questionnaire has a range of results from 0 to 100, with higher scores indicating greater impairment and with a minimum clinically important difference of 4 points.
The changes from baseline in Total Score and each of the 3 domain scores were analyzed by parametric ANCOVA with no imputation for missing data.

[5] = tested on: patients with interstitial lung disease and pulmonary hypertension; assay: Distance saturation product, INCREASE
Method: Change in distance saturation product is the product of distance walked and lowest SpO2 recorded during the 6-minute walk test.^7 Change from baseline to Week 16 in distance saturation product was analyzed by parametric ANCOVA with no imputation for missing distance saturation product values.

[6] = Week 8, subjects with IPF, listed as inhaled treprostinil
[7] = Week 16, subjects with IPF, listed as inhaled treprostinil

SMILES: CCCCC[C@H](O)CC[C@@H]1[C@H]2Cc3cccc(OCC(=O)O)c3C[C@H]2C[C@H]1O [Inhaled treprostinil, treprostinil]
- patients with exacerbations of underlying lung disease ([1]; over the 16-week treatment period): 26.4%
- hazard ratio, exacerbation of underlying lung disease ([1]; vs placebo, 16 weeks): 0.66
- reduction in risk of an exacerbation of underlying lung disease ([1]; vs placebo, 16 weeks): 34%
- effect on any pulmonary function test variable during the trial ([2]; 16-week trial): no deleterious effect
- FVC (% predicted), Estimated Difference Inhaled treprostinil - Placebo ([2]; Week 8, ITT Population, MMRM): 1.79 % predicted
- FVC (% predicted), LS Mean change from baseline ([2]; Week 8, ITT Population, MMRM): 0.77 % predicted
- FVC (mL), Estimated Difference Inhaled treprostinil - Placebo ([2]; Week 8, ITT Population, MMRM): 28.47 mL
- FVC (mL), LS Mean change from baseline ([2]; Week 8, ITT Population, MMRM): 5.49 mL
- DLCO (% predicted), Estimated Difference Inhaled treprostinil − Placebo ([2]; Week 8, MMRM): 1.07 % predicted
- DLCO (% predicted), LS Mean change from Baseline ([2]; Week 8, MMRM): −0.13 % predicted
- DLCO (mL/min/mmHg), Estimated Difference Inhaled treprostinil − Placebo ([2]; Week 8, MMRM): 0.19 mL/min/mmHg
- DLCO (mL/min/mmHg), LS Mean change from Baseline ([2]; Week 8, MMRM): −0.27 mL/min/mmHg
- FEV1 (% predicted), Estimated Difference Inhaled treprostinil − Placebo ([2]; Week 8, MMRM): 0.57 % predicted
- FEV1 (% predicted), LS Mean change from Baseline ([2]; Week 8, MMRM): −0.18 % predicted
- FEV1 (mL), Estimated Difference Inhaled treprostinil − Placebo ([2]; Week 8, MMRM): -8.95 mL
- FEV1 (mL), LS Mean change from Baseline ([2]; Week 8, MMRM): -21.34 mL
- TLC (% predicted), Estimated Difference Inhaled treprostinil − Placebo ([2]; Week 8, MMRM): 0.28 % predicted
- TLC (% predicted), LS Mean change from Baseline ([2]; Week 8, MMRM): −0.05 % predicted
- TLC (mL), Estimated Difference Inhaled treprostinil − Placebo ([2]; Week 8, MMRM): -16.23 mL
- TLC (mL), LS Mean change from Baseline ([2]; Week 8, MMRM): -38.75 mL
- FVC (% predicted), Estimated Difference Inhaled treprostinil - Placebo ([2]; Week 8, PH-ILD etiology IIP): 1.95 % predicted
- FVC (% predicted), LS Mean change from baseline ([2]; Week 8, PH-ILD etiology IIP): 0.92 % predicted
- FVC (mL), Estimated Difference Inhaled treprostinil - Placebo ([2]; Week 8, PH-ILD etiology IIP): 46.48 mL
- FVC (mL), LS Mean change from baseline ([2]; Week 8, PH-ILD etiology IIP): 9.27 mL
- FVC (% predicted), Estimated Difference Inhaled treprostinil - Placebo ([2]; Week 8, subjects with IPF): 2.543 % predicted
- FVC (% predicted), LS Mean change from baseline ([2]; Week 8, subjects with IPF): 1.60 % predicted
- FVC (mL), Estimated Difference Inhaled treprostinil - Placebo ([2]; Week 8, subjects with IPF): 84.522 mL
- FVC (mL), LS Mean change from baseline ([2]; Week 8, subjects with IPF): 41.69 mL
- FVC (% predicted), Estimated Difference Inhaled treprostinil - Placebo [2, 6]: 2.54 % predicted
- FVC (mL), Estimated Difference Inhaled treprostinil - Placebo [2, 6]: 84.52 mL
- FVC (% predicted), Estimated Difference Inhaled treprostinil - Placebo ([2]; Week 16, ITT Population, MMRM): 1.80 % predicted
- FVC (% predicted), LS Mean change from baseline ([2]; Week 16, ITT Population, MMRM): 1.07 % predicted
- FVC (mL), Estimated Difference Inhaled treprostinil - Placebo ([2]; Week 16, ITT Population, MMRM): 44.40 mL
- FVC (mL), LS Mean change from baseline ([2]; Week 16, ITT Population, MMRM): 9.77 mL
- DLCO (% predicted), Estimated Difference Inhaled treprostinil − Placebo ([2]; Week 16, MMRM): 0.60 % predicted
- DLCO (% predicted), LS Mean change from Baseline ([2]; Week 16, MMRM): −1.14 % predicted
- DLCO (mL/min/mmHg), Estimated Difference Inhaled treprostinil − Placebo ([2]; Week 16, MMRM): 0.02 mL/min/mmHg
- DLCO (mL/min/mmHg), LS Mean change from Baseline ([2]; Week 16, MMRM): −0.61 mL/min/mmHg
- FEV1 (% predicted), Estimated Difference Inhaled treprostinil − Placebo ([2]; Week 16, MMRM): 0.38 % predicted
- FEV1 (% predicted), LS Mean change from Baseline ([2]; Week 16, MMRM): −0.24 % predicted
- FEV1 (mL), Estimated Difference Inhaled treprostinil − Placebo ([2]; Week 16, MMRM): -2.56 mL
- FEV1 (mL), LS Mean change from Baseline ([2]; Week 16, MMRM): -32.18 mL
- TLC (% predicted), Estimated Difference Inhaled treprostinil − Placebo ([2]; Week 16, MMRM): 1.49 % predicted
- TLC (% predicted), LS Mean change from Baseline ([2]; Week 16, MMRM): 2.52 % predicted
- TLC (mL), Estimated Difference Inhaled treprostinil − Placebo ([2]; Week 16, MMRM): 17.37 mL
- TLC (mL), LS Mean change from Baseline ([2]; Week 16, MMRM): 45.43 mL
- FVC (% predicted), Estimated Difference Inhaled treprostinil - Placebo ([2]; Week 16, PH-ILD etiology IIP): 2.88 % predicted
- FVC (% predicted), LS Mean change from baseline ([2]; Week 16, PH-ILD etiology IIP): 1.66 % predicted
- FVC (mL), Estimated Difference Inhaled treprostinil - Placebo ([2]; Week 16, PH-ILD etiology IIP): 108.18 mL
- FVC (mL), LS Mean change from baseline ([2]; Week 16, PH-ILD etiology IIP): 22.16 mL
- FVC (% predicted), median improvement ([2]; Week 16, Safety Population): 1.0%
- FVC (% predicted), Estimated Difference Inhaled treprostinil - Placebo ([2]; Week 16, subjects with IPF): 3.504 % predicted
- FVC (% predicted), LS Mean change from baseline ([2]; Week 16, subjects with IPF): 1.62 % predicted
- FVC (mL), Estimated Difference Inhaled treprostinil - Placebo ([2]; Week 16, subjects with IPF): 168.524 mL
- FVC (mL), LS Mean change from baseline ([2]; Week 16, subjects with IPF): 38.24 mL
- FVC (% predicted), Estimated Difference Inhaled treprostinil - Placebo [2, 7]: 3.50 % predicted
- FVC (mL), Estimated Difference Inhaled treprostinil - Placebo [2, 7]: 168.52 mL
- patients with clinical worsening ([3]; 16 weeks): 22.7%
- patients with first occurrence of clinical worsening that involved hospitalization for a cardiopulmonary indication ([3]; 16 weeks): 11.0%
- Clinical worsening: Death from any cause ([3]; 16 weeks, N = 163): 4 (2.5) no. (%)
- Clinical worsening: Decrease in 6 minute walk distance of >15% from baseline ([3]; 16 weeks, N = 163): 13 (8.0) no. (%)
- Clinical worsening: Hospitalization for cardiopulmonary indication ([3]; 16 weeks, N = 163): 18 (11.0) no. (%)
- Clinical worsening: Lung transplantation ([3]; 16 weeks, N = 163): 2 (1.2) no. (%)
- Occurrence of clinical worsening: Any event ([3]; 16 weeks, N = 163): 37 (22.7) no. (%)
- Occurrence of clinical worsening, hazard ratio ([3]; vs placebo, Cox proportional-hazards model, listed as inhaled treprostinil): 0.61
- St. George's Respiratory Questionnaire, Change from Baseline, Median ([4]; Week 16): −0.70
- St. George's Respiratory Questionnaire, Value, Median ([4]; Week 16): 56.30
- St. George's Respiratory Questionnaire, Change from Baseline, LS Mean (SE) ([4]; Week 16, ANCOVA): −1.30 (0.87)
- St. George's Respiratory Questionnaire, Change from Baseline, Mean (SD) ([4]; Week 16, n 143): −1.25 (10.99)
- St. George's Respiratory Questionnaire, Value, Mean (SD) ([4]; Week 16, n 143): 55.91 (17.07)
- St. George's Respiratory Questionnaire, LS Mean Difference ([4]; week 16, vs placebo): −1.18, (1.25) (−3.63, 1.28)
- between-group difference in patient-reported quality of life assessed with the SGRQ ([4]; week 16, vs placebo): no significant between-group difference
- Distance saturation product, Week 16 Change from Baseline, LS Mean (SE) ([5]; ANCOVA): 7.2 (4.5) m %
- Distance saturation product, Week 16 Change from Baseline, Mean (SD) ([5]; n 118): 7.607 (45.680) m %
- Distance saturation product, Week 16 Change from Baseline, Median ([5]; n 118): 8.385 m %
- Distance saturation product, LS Mean Difference (SE) ([5]; week 16, vs placebo): 11.51 (6.5), 95% CI (−1.33, 24.35) m %
- between-group difference in the distance-saturation product ([5]; week 16, vs placebo): no significant between-group difference

Source: patent US12697315B2, “Treatment for interstitial lung disease” (United Therapeutics Corporation, priority 2020, dated 2026)
